Assay results from paper PMC6982876, “Synthesis of Novel Benzodifuranyl; 1,3,5-Triazines; 1,3,5-Oxadiazepines; and Thiazolopyrimidines Derived from Visnaginone and Khellinone as Anti-Inflammatory and Analgesic Agents” (Molecules, 2020).
Marks after values point to notes of the source that are not given here.

What was measured:
[1] = test system: acetic acid-induced writhing in mice; experiment: Acetic acid-induced writhing test (analgesic activity); assay type: in vivo; settings: 10 mg/kg p.o., n = 5; for Analgesic Activity (% protection): writhing test; for Writhing Number in 20 min (Mean ± SEM): acetic acid 1 h after dosing
Method: The analgesic activity of the compounds was performed using the writhing test as described by Gawade et al.. Mice weight ranged from 25 to 30 g. Then, mice were divided into 18 different groups, each containing five animals. The animals fasted for 8 h before the experiment. Administration of the compounds (10 mg/kg, p.o.) was performed orally. Equal doses of diclofenac as the reference drug and saline as a negative control were also administrated orally. Writhing was induced one hour after compound administration by using 0.1 mL of 1% glacial acetic acid at a volume of 0.1 mL/10 g body weight. The number of writhing responses (stretching of the abdomen, extension of hind limbs, twisting of the trunk, and elongation of the body) observed was counted for 20 min. The protection percentile against acetic acid-induced writhing was calculated according to the following formula: (1) Analgesic activity (%) =n−n′/n×100* where n is the mean number of writhes of the control group, and n’ is the mean number of writhes of the tested compound group.

human recombinant COX-2 = molecular target: T1, human recombinant COX-2 (Homo sapiens, UniProt P35354); experiment: In vitro COX inhibitor screening assay (EIA kit, Cayman), COX-2; assay type: biochemical; settings: for COX2 (SI) selectivity index: COX-1 IC50 / COX-2 IC50; for IC50: COX-2, mean of two determinations, enzyme kit, read-out: COX2 IC50
T1 construct: purchased Cayman Chemical, Ann Arbor, MI, USA 560131
T1 sequence (P35354 18-604): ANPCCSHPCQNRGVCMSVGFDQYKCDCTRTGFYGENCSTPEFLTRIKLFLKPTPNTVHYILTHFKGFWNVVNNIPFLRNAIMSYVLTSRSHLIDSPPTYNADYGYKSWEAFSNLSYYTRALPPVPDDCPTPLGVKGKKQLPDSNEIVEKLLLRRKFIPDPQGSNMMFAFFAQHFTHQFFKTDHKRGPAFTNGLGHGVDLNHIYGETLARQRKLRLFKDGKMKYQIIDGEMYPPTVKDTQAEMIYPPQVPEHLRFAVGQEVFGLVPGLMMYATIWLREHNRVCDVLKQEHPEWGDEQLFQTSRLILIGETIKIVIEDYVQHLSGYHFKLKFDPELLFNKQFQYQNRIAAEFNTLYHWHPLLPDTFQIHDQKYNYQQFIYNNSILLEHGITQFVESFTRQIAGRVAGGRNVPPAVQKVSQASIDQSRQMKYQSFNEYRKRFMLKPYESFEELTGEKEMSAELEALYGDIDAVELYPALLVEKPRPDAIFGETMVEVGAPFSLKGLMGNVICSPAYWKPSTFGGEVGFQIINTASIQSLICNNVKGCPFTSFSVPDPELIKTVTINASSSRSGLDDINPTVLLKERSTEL
Method: (§1) Furthermore, the selectivity index for COX-2 (COX-1 IC50 / COX-2 IC50) was calculated for the compounds.

ovine COX-1 = molecular target: T2, ovine COX-1 (Ovis aries, UniProt P05979); experiment: In vitro COX inhibitor screening assay (EIA kit, Cayman), COX-1; assay type: biochemical; settings: mean of two determinations, enzyme kit, read-out: COX1 IC50
T2 construct: purchased Cayman Chemical, Ann Arbor, MI, USA 560131
T2 sequence (P05979 25-600): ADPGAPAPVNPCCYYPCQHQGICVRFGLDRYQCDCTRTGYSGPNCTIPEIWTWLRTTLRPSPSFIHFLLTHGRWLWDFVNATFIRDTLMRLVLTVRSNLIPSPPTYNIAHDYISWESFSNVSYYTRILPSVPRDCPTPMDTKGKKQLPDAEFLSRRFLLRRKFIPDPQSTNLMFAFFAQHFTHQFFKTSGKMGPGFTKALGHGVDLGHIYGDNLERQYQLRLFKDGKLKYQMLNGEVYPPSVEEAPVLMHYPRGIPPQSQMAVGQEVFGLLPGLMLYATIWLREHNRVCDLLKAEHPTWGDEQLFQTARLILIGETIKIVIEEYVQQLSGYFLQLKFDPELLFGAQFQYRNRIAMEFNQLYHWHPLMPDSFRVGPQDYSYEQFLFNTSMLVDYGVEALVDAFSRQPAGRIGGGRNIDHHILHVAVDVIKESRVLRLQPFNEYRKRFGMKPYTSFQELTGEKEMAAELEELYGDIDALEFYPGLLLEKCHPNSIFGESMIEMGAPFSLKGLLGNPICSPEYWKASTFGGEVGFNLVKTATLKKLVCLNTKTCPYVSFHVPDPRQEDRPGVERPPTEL
Method: as §1

[2] = test system: carrageenan-induced paw edema in rats; experiment: Carrageenan-induced paw edema (anti-inflammatory activity); assay type: in vivo; settings: 10 mg/kg oral; for % Change in Paw Height (Mean ± SEM): n = 5
Method: Albino rats (150–180 g) were used. The rats were divided into 11 experimental groups of five rats each. One hour after oral administration of the compounds (10 mg/kg), 0.1 mL of 1% carrageenan solution was injected in the left hind paw of each animal. Rat paw volumes were measured with a digital caliber plethysmometer (UGO Basile, Varese, Italy) used to measure inflammation height at 0, 1, 2, and 3 h after carrageenan injection. The percentage increase in inflammation in the left hind paw, in comparison to the uninjected right hind paw, was determined, calculated, and expressed as the amount of inflammation. […] The anti-inflammatory activity of the selected analgesic compounds after 3 h was expressed as percentage inhibition of edema, which was calculated according to the following equation: (2) Inhibition of edema (%) =Vcont−Vtest/Vcont×100* where V cont is the edema volume in the control group, and V test is the edema volume in the group of the screened compound.

[3] = test system: interleukin-1 beta (IL-1 β); experiment: ELISA of serum interleukin-1 beta after paw edema test; assay type: in vivo, rats; settings: rat serum at the end of the paw edema test, mean ± SEM, n = 5
Method: IL1 is one of the important inflammatory mediators and is used to confirm the anti-inflammatory activities of new anti-inflammatory compounds. At the end of the paw edema test, blood samples were collected from the orbital axis of the eye under light ether anesthesia. Sera were separated after centrifugation of blood at 5000 rpm for 15 min; the sera were stored at –80 °C until the ELISA assay was performed according to the manufacturer instructions.

SMILES | Analgesic Activity (% protection) [1] | COX2 (SI) selectivity index (human recombinant COX-2) | IC50 (human recombinant COX-2) | IC50 (ovine COX-1) | melting point | % Change in Paw Height (Mean ± SEM) ([2]; 1 hr after carrageenan) | % Change in Paw Height (Mean ± SEM) ([2]; 2 hr after carrageenan) | Anti-Inflammatory Activity (% Inhibition of Edema) ([2]; 3 hr after carrageenan) | % Change in Paw Height (Mean ± SEM) ([2]; 3 hr after carrageenan) | Writhing Number in 20 min (Mean ± SEM) [1] | IL-1 β Concentration [3]
COc1c2occc2c(OC)c2c(C)c(C(=O)Nc3cc(=O)n4c(n3)SCC4=O)oc12 [Compound 7b, N-(3,5-dioxo-2,3-dihydro-5H-thiazolo[3,2-a]pyrimidin-7-yl)-4,8-dimethoxy-3-methylbenzo [1,2-b:5,4-b`]difuran-2-carboxamide] | 35 ± 1.14% | 80 | 0.09 µM | 7.18 µM | 327 to 329 °C | 0.30 ± 0.02 ^a % | 0.25 ± 0.01 ^a % | 52% | 0.29 ± 0.01 ^a % |  | 
COc1c2ccoc2cc2oc(C(Cl)=Nc3cc(Cl)nc(=S)[nH]3)c(C)c12 [Compound 8a, N-(6-chloro-2-thioxo-2,3-dihydropyrimidin-4-yl)-4-methoxy-3-methylbenzo [1,2-b: 5,4-b`] difuran-2-carbimidoyl chloride] | 27 ± 0.60% | 61 | 0.28 µM | 17 µM | 337 to 339 °C | 0.37 ± 0.02 ^a % | 0.30 ± 0.03 ^a % | 40% | 0.37 ± 0.02 ^a % | 48 ± 1.9 ^a,b | 
COc1c2occc2c(OC)c2c(C)c(C(Cl)=Nc3cc(Cl)nc(=S)[nH]3)oc12 [Compound 8b, N-(6-chloro-2-thioxo-2,3-dihydropyrimidin-4-yl)-4,8-dimethoxy-3-methylbenzo [1,2-b: 5,4-b`] difuran-2-carbimidoyl chloride] | 28 ± 0.95% | 63 | 0.245 µM | 15.5 µM | 347 to 349 °C | 0.36 ± 0.01 ^a % | 0.29 ± 0.02 ^a % | 42% | 0.35 ± 0.02 ^a % | 47 ± 2.2 ^a,b | 
COc1c2ccoc2cc2oc(C(Cl)=Nc3cc(Cl)nc(SC)n3)c(C)c12 [Compound 9a, N-(6-chloro-2-(methylthio)pyrimidin-4-yl)-4-methoxy-3-methylbenzo [1,2-b: 5,4-b`] difuran-2-carbimidoyl chloride] | 30 ± 1.05% | 70 | 0.17 µM | 12 µM | > 350 °C | 0.35 ± 0.01 ^a % | 0.28 ± 0.02 ^a % | 45% | 0.33 ± 0.02 ^a % | 45 ± 2.4 ^a,b | 
COc1c2occc2c(OC)c2c(C)c(C(Cl)=Nc3cc(Cl)nc(SC)n3)oc12 [Compound 9b, N-(6-chloro-2-(methylthio)pyrimidin-4-yl)-4,8-dimethoxy-3-methylbenzo [1,2-b: 5,4-b`] difuran-2-carbimidoyl chloride] | 32 ± 1.2% | 72 | 0.155 µM | 11.1 µM | > 350 °C | 0.33 ± 0.02 ^a % | 0.27 ± 0.01 ^a % | 48% | 0.31 ± 0.01 ^a % | 44 ± 2.5 ^a,b | 
COc1c2ccoc2cc2oc(C(=Nc3cc(N4CCNCC4)nc(N4CCNCC4)n3)N3CCNCC3)c(C)c12 [Compound 10a, N-(2,6-di (piperazin-1-yl)pyrimidin-4-yl)-1-(4-methoxy-3-methylbenzo [1,2-b: 5,4-b`]difuran-2-yl)-1-(piperazin-1-yl) methanimine] | 50 ± 1.6 ^a % | 98 | 0.043 µM | 4.23 µM | > 350 °C | 0.19 ± 0.01 ^a % | 0.14 ± 0.02 ^a % | 67% | 0.16 ± 0.02 ^a % | 25 ± 1.3 ^a | 31 ± 0.55 ^b Pg /mL
COc1c2occc2c(OC)c2c(C)c(C(=Nc3cc(N4CCNCC4)nc(N4CCNCC4)n3)N3CCNCC3)oc12 [Compound 10c, N-(2,6-di (piperazin-1-yl)pyrimidin-4-yl)-1-(4,8-dimethoxy-3-methylbenzo [1,2-b: 5,4-b`]difuran-2-yl)-1-(piperazin-1-yl) methanimine] | 51 ± 1.4 ^a % |  |  | 4.15 µM |  | 0.18 ± 0.01 ^a % | 0.13 ± 0.02 ^a % | 68% | 0.15 ± 0.02 ^a % | 24 ± 1.5 ^a | 30 ± 0.70 ^b Pg /mL
